# Results from patent publication US9986723B2, “Screen and use of therapeutics for pancreatic ductal adenocarcinoma” (The Board of Regents of the University of Texas System, priority 2014, dated 2018).
# Assays:
# C5LM2 cells = assay: Liver metastases after intrasplenic tumor cell injection; assay type: in vivo, mouse; settings: warfarin 1 mg/L, pre or post (48 hrs) tumor cell injection
# Protocol: FIGS. 25A-I. Axl inhibition reduces colony formation and enhances chemotherapy. (FIGS. 25A-C) parental Mia PaCa-2 cells or Mia PaCa-2 cells stably transfected with shRNA targeting Axl (Mia shAxl) were grown as spheroids in matrigel for 7 days in the presence or absence of warfarin (200 ng/ml), n=4/condition. Mia PaCa-2 cell colonies form large stellate colonies characteristic of invasive tumor growth. Colonies and cognate cell projections were imaged (FIG. 25A) with a Nikon Phase contrast microscope using 40× and 200× magnification. Mean total colony number (FIG. 25B) and total colony area+/−s.d. (FIG. 25C) reflective of invasive growth were calculated using Image J image analysis. […] (FIG. 25E) liver metastases were quantified after intrasplenic injection of C5LM2 cells. […] Mice were sacrificed when control treated animals were moribund and primary and metastatic burden was determined. […]
# Animal studies. […] Mice with established tumors, as determined by sonography were randomized to receive normal drinking water or water containing 1 mg/L (˜3.0 μM) warfarin for experiments in immunocompromised mice and 0.5 mg/L (˜1.5 μM) in experiments in immunocompetent animals with or without gemcitabine 25 mg/kg twice weekly depending on experimental design. […] Metastatic incidence was determined by visual inspection of the liver and abdominal cavity and confirmed by H&E of liver sections. […]
# Gas6 = Gas6 γ-carboxylation in conditioned media of HEK293 cells expressing recombinant Gas6 (immunoblot); assay type: cell-based; settings: Vitamin K + warfarin, in vitro
# Protocol: (FIG. 24A) HEK293 cells engineered to stably express recombinant Gas6 were grown in the presence of Vitamin K or Vitamin K+warfarin. Gas6 levels and γ-carboxylation were assayed by immunoblotting conditioned media. Conditioned media from untransfected HEK293 cells was used as a negative control. (FIG. 24B) Panc1 cells were grown overnight in media with 1% serum with no additions (NT), warfarin (2 μM) or BGB324 (2 μM). Lysates were probed for total Axl (tAxl) and phosphorylated Axl (pAxl). (FIG. 24C) Panc1 cells were grown in the presence of control media, Vitamin K, warfarin or warfarin+Vitamin K. The level of phosphorylated Axl (pAXL, red) was determined by immunofluorescence. (FIG. 24D) Panc1 cells were grown overnight in media with 1% serum with no additions (control), warfarin (1 μM), Gas6 (1.3 nM) or Gas6+warfarin. Lysates were probed for phosphorylated Akt (pAkt) and actin. (FIG. 24E) Lysates from Panc1 tumors harvested from mice treated with control or warfarin were probed for expression of tAxl, pAxl, actin, pAKT, tAKT, and cleaved Parp. (FIG. 24F) The effect of warfarin on cell migration was assessed by a ‘scratch’ assay. Monolayers of the indicted cells were wounded with a pipet tip. The cells were incubated in media containing 2% serum+/−warfarin (2 μM) or media containing 2% serum+Gas6 (1.3 nM)+/−warfarin.
compound,measurement,setting,value
CC(=O)CC(c1ccccc1)c1c(O)c2ccccc2oc1=O (racemic) [Warfarin],liver colonization after intrasplenic injection,C5LM2 cells,inhibited liver colonization
same,γ-carboxylation of Gas6,Gas6,prevented
